Test system: cuprizone-intoxicated mice
Assay: Remyelination of corpus callosum in cuprizone-intoxicated mouse model of demyelination
Type: in vivo
Details: cuprizone diet 5 weeks, then NaB 50 mg/kg body wt/d oral gavage 3 weeks
Procedure: FIGS. 16A-16C: Oral NaB stimulates the maturation of OPCs in vivo in the corpus callosum of cuprizone-intoxicated mice. C57/BL6 mice (8-10 week old; male) were fed cuprizone-containing diet (Envigo) for 5 weeks followed by treatment with NaB (50 mg/kg body wt/d) orally via gavage. FIG. 16A) After 3 weeks of treatment with NaB, corpus callosum sections were double-labeled for PLP and A2B5. Mean fluorescence intensity (MFI) of A2B5 (FIG. 16B) and PLP (FIG. 16C) were quantified from one section (two images per section) of each of 5 mice group. Results are mean+SEM of 5 mice per group. ***p<0.001; **p<0.01.
FIGS. 17A-17H: Effect of NaB on myelination in vivo in the corpus callosum of cuprizone-intoxicated mice. C57/BL6 mice (8-10 week old; male; n=5) were fed cuprizone-containing diet (Envigo) for 5 weeks followed by treatment with NaB (50 mg/kg body wt/d) orally via gavage. After 3 weeks of treatment with NaB, corpus callosum sections were immunostained MBP (FIG. 17A) and PLP (FIG. 17B). Mean fluorescence intensity (MFI) of MBP (FIG. 17C) and PLP (FIG. 17D) were quantified from one section (two images per section) of each of 5 mice group. Results are mean+SEM of 5 mice per group. **p<0.01; *p<0.05. FIG. 17E) Corpus callosum sections were stained for luxol fast blue (LFB). FIG. 17F) For electron microscopic studies, 50 μm thick sagittal sections were prepared and stained followed by analysis of corpus callosum sections for different parameters to evaluate axonal ultrastructures. FIG. 17G) G score was calculated in 75 axons per group for all three groups. FIG. 17H) Percentage of myelinated axons was calculated in 7 randomly selected corpus callosum sections of 5 mice per group. ***p<0.001.

Structure (SMILES): O=C([O-])c1ccccc1.[Na+] [NaB, Sodium benzoate]
- MBP in corpus callosum: increased
- level of A2B5 in corpus callosum: decreased
- level of PLP in corpus callosum: increased
- maturation of OPCs in vivo in the corpus callosum: stimulates
- remyelination in the corpus callosum: can promote remyelination

From patent publication US20250057793A1, “BENZOIC ACID SALTS FOR TREATMENT OF NERVOUS SYSTEM INJURIES AND DISORDERS” (The United States Government as represented by the …, priority 2021, published 2025)
